Results reported in patent publication US20170182047A9, “Post-Translational Regulation of Catalytic Activities of Cytochrome P450 46A1 and Uses Thereof” (The Board of Regents of the University of Texas System, priority 2007, published 2017).

Legend:
[1] = test system: Cholesterol 24S-Hydroxylase (CYP46A1); assay: Plasma oxysterol levels in voriconazole-treated mice
Protocol: Seven week old male C57/B6 J mice from Charles River were injected intraperitoneally with voriconazole (60 mg/kg or 75 mg/kg, corresponding to 0.6 and 0.75 ml, respectively, of the drug solution). The control mice were injected with the same solutions containing no voriconazole. The mice were sacrificed by cervical dislocation. Brain and liver were collected, snap frozen in liquid nitrogen and stored at −80° C.

[2] = test system: Cholesterol 24S-Hydroxylase (CYP46A1); assay: Brain sterol levels in mice after intraperitoneal voriconazole; format: in vivo, C57/B6 J mice
Protocol: The mice were sacrificed by cervical dislocation.
Lipids were extracted from the brain according to Folch with some modifications. Approximately 10 mg of brain tissue was added to 1 ml of homogenization buffer (5 mM EDTA, 50 μg/ml butylated hydroxytoluene in phosphate-buffered saline, pH 7,4) in a clean glass tube, and the tissue was disrupted using a polytron homogeniser. Three milliliters of chloroform:methanol (2:1, v:v) were added to the homogenate and the vials were mixed by vortexing. Samples were centrifuged at 10,000 g for 10 min. The organic phase was transferred to a new vial. The aqueous phase was re-extracted as described previously three more times. The pooled organic phase was dried under stream of argon gas, and chloroform:methanol (2:1, v:v) added to the dried samples to achieve suitable concentration.

[3] = 60 mg/kg i.p. once a day for 5 days

Q: How did the “plasma concentration of 24S-hydroxycholesterol” value ([1]; pool of plasma, voriconazole-treated mice (control 18.8)) turn out when `C[C@@H](c1ncncc1F)[C@](O)(Cn1cncn1)c1ccc(F)cc1F` [voriconazole] was run?
A: 13.2 ng/mL

Q: And the “effect on plasma level of 27-hydroxycholesterol” value ([1]; voriconazole-treated mice)?
A: not significantly affected

Q: And the “plasma level of 27-hydroxycholesterol” value ([1]; voriconazole-treated mice (controls 52))?
A: 46 ng/mL

Q: What about the “suppression of plasma levels of 24S-hydroxycholesterol” value ([1]; vs control pool) of the same compound?
A: about 30%

Q: What about the “effect on the levels of 27-hydroxycholesterol in the brain” value [2, 3] of the same compound?
A: no effect

Q: What about the “effect on the levels of cholesterol in the brain” value [2, 3] of the same compound?
A: no effect

Q: What about the “level of lathosterol in the brain” value ([2]; 60 mg/kg i.p. once a day for 5 days, p<0.05) of the same compound?
A: significantly reduced

Q: What about the “reduction in the levels of 24S-hydroxycholesterol in the brain” value ([2]; 60 mg/kg i.p. once a day for 5 days, p=0.03) of the same compound?
A: 37%

Q: And the “levels of 24S-hydroxycholesterol in the brain” value ([2]; different doses (60 or 75 mg/kg i.p.), six hours after the injection)?
A: appeared to reduce the levels of 24S-hydroxycholesterol

Q: And the “effect on levels of lathosterol in the brain” value ([2]; single 60 mg/kg i.p., 2 hours)?
A: no significant effect

Q: And the “effect on levels of total cholesterol in the brain” value ([2]; single 60 mg/kg i.p., 2 hours)?
A: no significant effect

Q: What about the “reduction of levels of 24S-hydroxycholesterol in the brain” value ([2]; single 60 mg/kg i.p., 2 hours, not statistically significant (p>0.05)) of the same compound?
A: 20%

Q: And the “brain levels of dehydrolanosterol” value ([2]; voriconazole-treated mice (controls 0.14+0.05))?
A: 1.9+0.7 ng/mg tissue

Q: What about the “brain levels of squalene” value ([2]; voriconazole-treated mice (controls 2.2+0.8), p=0.05) of the same compound?
A: 1.7+0.6 ng/mg tissue

Q: And the “brain levels of lanosterol” value ([2]; voriconazole-treated mice (controls 6.1+2.0), p<0.001)?
A: 27+10 ng/mg tissue
